Laboratory results taken from patent EP0052238B1, “A new vincamine derivative, a method for its preparation and pharmaceutical compositions containing it” (MEDEA RESEARCH S.r.l., priority 1980, dated 1982).

Legend:
[1] = test system: smooth musculature of the isolated ileum of rabbits, made hypertonic by serotonin; experiment: Myorelaxing effect on isolated ileum made hypertonic by serotonin; settings: isolated rabbit ileum, relative to vincamine
From the text: (§1) The myorelaxing effect of MR 711 and vincamine has been investigated on the smooth musculature of the isolated ileum of rabbits, made hypertonic by sodium ions or serotonin.

[2] = test system: smooth musculature of the isolated ileum of rabbits, made hypertonic by sodium ions; experiment: Myorelaxing effect on isolated ileum made hypertonic by sodium ions; settings: isolated rabbit ileum, relative to vincamine
From the text: as §1

[3] = Acute toxicity in mice (LD50, Lichtfield and Wilcoxon); settings: mouse, in vivo, ip
mice = experiment: Protective action on the mortality by hypobaric hypoxia; type: in vivo; settings: intravenous route, 25.6 mg/kg; for Survival time: pressure reduced until 190 mm Hg; for % Variation: survival time versus controls

| Compound | activity in inhibiting the serotonin induced contractions, higher than the corresponding activity displayed by vincamine [1] | activity in inhibiting the sodium ions induced contractions, higher than the corresponding activity displayed by vincamine [2] | LD50 [3] | Survival time (mice) | % Variation (mice) |
| --- | --- | --- | --- | --- | --- |
| CCC12C=C(C(=O)OCOC)n3c4c(c5ccccc53)CCN(CCC1)C42 (centres unmarked) [MR 711, 13a-ethyl-2,3,5,6,13a,13b-hexahydro-1 H-indolo[3,2,1-de]pyrido[3,2,1-ij]-[1,5]naphthyridine-12-methoxymethylcarboxylate] | 70% | 46% | 580 mg/kg | 262.9 ± 31.4 s | +263% |
| CC[C@]12CCCN3CCc4c(n(c5ccccc45)[C@@](O)(C(=O)OC)C1)[C@@H]32 [Vincamine] |  |  | 195 mg/kg | 213.3 ± 37.9 s | +194% |
